Test results from patent publication EP4810486A1, “CRYSTAL OF HETEROCYCLIC DERIVATIVE” (Nippon Shinyaku Co., Ltd., priority 2023, dated 2025).
Blank lines part the entries; values can stand above or below the compound they belong to.

How the values were obtained:
Type in all cases: physicochemical
[1] = Stability evaluation on exposure to heating, light or humidifying stimulus (HPLC)
Protocol: The Form-I crystal of the p-TsOH salt of the compound A and the free form crystal of the compound A prepared according to the method described in PATENT DOCUMENT 1 were exposed to heating stimulus (allowed to stand at 60°C for 24 hours), light stimulus (light source: D65 lamp, total intensity: 1.2 million lx·hr), or humidifying stimulus (allowed to stand at 30°C and a relative humidity of 90% for 24 hours), and the stability thereof was evaluated based on the percentage (%) of the area of the peak of the free form of the compound A or the Form-I crystal of the p-TsOH salt of the compound A in the observed peaks in HPLC with and without exposure to the stimuli.

[2] = Stability of Form-I crystal in various solvents (X-ray powder diffraction); details: pulverized crystal in methanol, ethyl acetate or methyl ethyl ketone, 40°C, 115 hours
Protocol: In order to facilitate the transition of the crystal form by a solvent, the Form-I crystal of the p-TsOH salt of the compound A was pulverized in a mortar. The obtained pulverized material was added to methanol, ethyl acetate, or methyl ethyl ketone, and the mixture was stirred at 40°C for 115 hours. After stirring, the crystal form of the p-TsOH salt of the compound A in the solution was examined by X-ray powder diffraction, and the results are shown in FIG. 28.

[3] = Crystal form transition on heating (relative stability of crystal forms)
Protocol: The Form-V crystal of the p-TsOH salt of the compound A obtained in Comparative Example 1 was heated at 205°C for 10 minutes, and as a result, a Form-III crystal of the p-TsOH salt of the compound A was obtained.
The Form-VI crystal of the p-TsOH salt of the compound A obtained in Comparative Example 2 was heated at 190°C for 10 minutes, and as a result, a Form-III crystal of the p-TsOH salt of the compound A was obtained.

[4] = Differential thermal analysis and thermogravimetric analysis (TG/DTA); details: heating rate 10.0°C/min, nitrogen
Protocol: TG/DTA in Examples 1 to 11 was measured by TG-8120 (manufactured by Rigaku Corporation) (cell: alumina (open), gas: nitrogen, heating rate: 10.0°C/min, hold temperature: 300°C, hold time: 0 min) unless otherwise specified.
The results of differential scanning calorimetry (DSC) of the Form-I crystal of the p-TsOH salt of the compound A are shown in FIG. 2. The results of thermophysical property measurement by differential thermal analysis (DTA) and thermogravimetric analysis (TGA) of the Form-I crystal of the p-TsOH salt of the compound A are shown in FIG. 3.

[5] = Stability test of Form-III crystal at 40°C and 75% relative humidity; details: relative humidity 75%
Protocol: About 10 mg of the Form-III crystal of the p-TsOH salt of the compound A obtained in Example 2 was allowed to stand at 40°C and a relative humidity of 75% for 7 days or longer, and as a result, the Form-III crystal of the p-TsOH salt of the compound A was able to exist stably for 7 days or longer.

[6] = Relative stability of Form-I to Form-III crystals: pairs stirred in acetone (X-ray powder diffraction); details: pairs at mass ratio 1:1 in acetone, 30°C, 42 hours
Protocol: The Form-I crystal and the Form-II crystal of the p-TsOH salt of the compound A, the Form-I crystal and the Form-III crystal of the p-TsOH salt of the compound A, or the Form-II crystal and the Form-III crystal of the p-TsOH salt of the compound A were added to acetone at a mass ratio of 1:1, and the mixture was stirred at 30°C for 42 hours. Then, the crystal form of the p-TsOH salt of the compound A in the solution was examined by X-ray powder diffraction, and as a result, under all the three conditions, each of the crystals of the p-TsOH salt of the compound A in the solution transitioned to a Form-I crystal.

[7] = Stability of crystal form on mechanical stimulus and water (X-ray powder diffraction); details: pulverized, water-treated, stored at 30°C, relative humidity 90%, tableted (2,000 kgf × 30 min)
Protocol: X-ray powder diffraction measurement was performed for a crystal (pulverized) obtained by pulverizing the Form-I crystal of the p-TsOH salt of the compound A in a mortar, a crystal (water-treated) obtained by kneading the Form-I crystal of the p-TsOH salt of the compound A after adding water, a sample of the Form-I crystal of the p-TsOH salt of the compound A stored under a humidifying stimulus condition (30°C, relative humidity of 90%), and a sample obtained by tableting the Form-I crystal of the p-TsOH salt of the compound A (2,000 kgf × 30 min). The results are shown in FIG. 24 together with the results of the Form-I crystal of the p-TsOH salt of the compound A not undergoing any treatment (untreated).

[8] = Thermal stability of Form-II crystal (X-ray powder diffraction while heating and cooling); details: heated to 30°C, 150°C, 200°C, then cooled to 150°C and 30°C
Protocol: Therefore, for the Form-II crystal of the p-TsOH salt of the compound A, the crystal form was examined by X-ray powder diffraction while increasing the temperature to 30°C, 150°C, and 200°C, and then the crystal form was further examined by X-ray powder diffraction while cooling to 150°C and 30°C.

[9] = Stability test of Form-I crystal when mixed with excipient (40°C, 75% relative humidity, open system; HPLC and visual inspection); details: for observation of the color of the crystal: crystal only and all excipient mixtures, visual inspection
Protocol: The Form-I crystal of the p-TsOH salt of the compound A was mixed with each of various excipients at a mass ratio of 1:1 using a mortar, was allowed to stand in a thermo-hygrostat at a temperature of 40°C and a relative humidity of 75% in an open system for 2 weeks or 1 month, and then evaluated for the presence/absence of decomposition using HPLC and checked for color change by visual inspection. The stability of only the Form-I crystal of the p-TsOH salt of the compound A was also evaluated as a reference. The conditions for HPLC are as follows. • Instrument: SHIMADZU LC-2010 CHT • Column: COSMOSIL 3C18-MSII 4.6×100 mm • Column temperature: 40°C • Mobile phase: Liquid A; MeCN/H2O/MsOH = 600/400/1 Liquid B: MeCN/H2O/MsOH = 900/100/1 • Gradient: 0-8 min; A = 100% • 8-10 min; A to B • 10-20 min; B = 100% • 20-21 min; B to A • Flow rate: 0.5 mL/min • Wavelength: 230 nm
The results of the percentage (%) of the area of the peak of the Form-I crystal of the p-TsOH salt of the compound A in the observed peaks in HPLC and observation of the color of the crystal are shown in Table 3. According to Table 3, no decomposition of the Form-I crystal of the p-TsOH salt of the compound A was observed under the conditions of mixing with any of the excipients, and no color change occurred. […]

[10] = Relative stability between crystals: six forms stirred together in DMF/toluene (X-ray powder diffraction); details: Form-I, III, IV, V, VI, VII, 100 mg each, in DMF/toluene 1:9, stirred at 20°C or 55°C
Protocol: The crystals of the p-TsOH salt of the compound A prepared in Examples 1 to 3 and Comparative Examples 1 to 3 were each weighed in 100 mg, a total of 600 mg was added to 30 mL of a mixed solvent of DMF and toluene having a volume ratio of 1:9, and the mixture was stirred at 20°C or 55°C. After 3, 4, 7, and 8 days from the start of stirring at 20°C, and after 3 and 4 days from the start of stirring at 55°C, the crystal form of the p-TsOH salt of the compound A in the mixed solution was measured by X-ray powder diffraction.

[11] = Crystal form transition on standing at 40°C and 75% relative humidity (relative stability); details: 1/2 acetonitrile solvate crystal at 40°C, relative humidity 75%, 7 days gave Form-IV crystal
Protocol: About 10 mg of the 1/2 acetonitrile solvate crystal of the p-TsOH salt of the compound A obtained in Example 3 was allowed to stand at 40°C and a relative humidity of 75% for 7 days, and as a result, a Form-IV crystal of the p-TsOH salt of the compound A was obtained.

[12] = Heating stimulus: 60°C for 24 hours
[13] = Humidifying stimulus: 30°C, relative humidity 90%, 24 hours
[14] = Light stimulus: D65 lamp, total intensity 1.2 million lx·hr

- percentage (%) of the area of the peak in the observed peaks in HPLC [1, 12]: 99.76%
- percentage (%) of the area of the peak in the observed peaks in HPLC [1, 13]: 99.76%
- percentage (%) of the area of the peak in the observed peaks in HPLC [1, 14]: 99.74%
- percentage (%) of the area of the peak in the observed peaks in HPLC ([1]; No stimulus): 99.78%
SMILES: COCc1nc2c(C(=O)Nc3cccc(Cl)c3C)cc(NC(=O)c3ccccc3C(F)(F)F)cc2[nH]1 [Free form of compound A, N-(3-chloro-2-methylphenyl)-2-(methoxymethyl)-6-({[2-(trifluoromethyl)phenyl]carbonyl}amino)-1H-benzimidazole-4-carboxamide]

- relative stability of crystal forms ([3]; Form-V crystal heated at 205°C for 10 minutes gave Form-III crystal): higher stability than the Form-V crystal
- time for which the crystal was able to exist stably [5]: ≥ 7 days
- percentage (%) of the area of the peak in the observed peaks in HPLC [1, 12]: 99.69%
- percentage (%) of the area of the peak in the observed peaks in HPLC [1, 13]: 99.68%
- percentage (%) of the area of the peak in the observed peaks in HPLC [1, 14]: 99.72%
- percentage (%) of the area of the peak in the observed peaks in HPLC ([1]; No stimulus): 99.70%
- most stable form among Form-I, Form-II and Form-III crystals [6]: the most stable form
- stability against heat [8]: rather stable against heat
- percentage (%) of the area of the peak of the Form-I crystal of the p-TsOH salt of the compound A in the observed peaks in HPLC ([9]; Crystal only, 1 month at 40°C, relative humidity 75%, open system): 99.68%
- percentage (%) of the area of the peak of the Form-I crystal of the p-TsOH salt of the compound A in the observed peaks in HPLC ([9]; Crystal only, 2 weeks at 40°C, relative humidity 75%, open system): 99.70%
- percentage (%) of the area of the peak of the Form-I crystal of the p-TsOH salt of the compound A in the observed peaks in HPLC ([9]; Crystal only, immediately after mixing): 99.71%
- observation of the color of the crystal ([9]; 1 month at 40°C, relative humidity 75%): No color change under any conditions
- observation of the color of the crystal ([9]; 2 weeks at 40°C, relative humidity 75%): No color change under any conditions
- percentage (%) of the area of the peak of the Form-I crystal of the p-TsOH salt of the compound A in the observed peaks in HPLC ([9]; mixed 1:1 with Corn starch, 1 month at 40°C, relative humidity 75%): 99.66%
- percentage (%) of the area of the peak of the Form-I crystal of the p-TsOH salt of the compound A in the observed peaks in HPLC ([9]; mixed 1:1 with Corn starch, 2 weeks at 40°C, relative humidity 75%): 99.66%
- percentage (%) of the area of the peak of the Form-I crystal of the p-TsOH salt of the compound A in the observed peaks in HPLC ([9]; mixed 1:1 with Corn starch, immediately after mixing): 99.71%
- percentage (%) of the area of the peak of the Form-I crystal of the p-TsOH salt of the compound A in the observed peaks in HPLC ([9]; mixed 1:1 with Crystalline cellulose, 1 month at 40°C, relative humidity 75%): 99.69%
- percentage (%) of the area of the peak of the Form-I crystal of the p-TsOH salt of the compound A in the observed peaks in HPLC ([9]; mixed 1:1 with Crystalline cellulose, 2 weeks at 40°C, relative humidity 75%): 99.65%
- percentage (%) of the area of the peak of the Form-I crystal of the p-TsOH salt of the compound A in the observed peaks in HPLC ([9]; mixed 1:1 with Crystalline cellulose, immediately after mixing): 99.73%
- percentage (%) of the area of the peak of the Form-I crystal of the p-TsOH salt of the compound A in the observed peaks in HPLC ([9]; mixed 1:1 with D-Mannitol, 1 month at 40°C, relative humidity 75%): 99.71%
- percentage (%) of the area of the peak of the Form-I crystal of the p-TsOH salt of the compound A in the observed peaks in HPLC ([9]; mixed 1:1 with D-Mannitol, 2 weeks at 40°C, relative humidity 75%): 99.70%
- percentage (%) of the area of the peak of the Form-I crystal of the p-TsOH salt of the compound A in the observed peaks in HPLC ([9]; mixed 1:1 with D-Mannitol, immediately after mixing): 99.63%
- percentage (%) of the area of the peak of the Form-I crystal of the p-TsOH salt of the compound A in the observed peaks in HPLC ([9]; mixed 1:1 with Lactose, 1 month at 40°C, relative humidity 75%): 99.58%
- percentage (%) of the area of the peak of the Form-I crystal of the p-TsOH salt of the compound A in the observed peaks in HPLC ([9]; mixed 1:1 with Lactose, 2 weeks at 40°C, relative humidity 75%): 99.74%
- percentage (%) of the area of the peak of the Form-I crystal of the p-TsOH salt of the compound A in the observed peaks in HPLC ([9]; mixed 1:1 with Lactose, immediately after mixing): 99.64%
- most stable form among the crystals [10]: the most stable form
SMILES: COCc1nc2c(C(=O)Nc3cccc(Cl)c3C)cc(NC(=O)c3ccccc3C(F)(F)F)cc2[nH]1.Cc1ccc(S(=O)(=O)O)cc1 [N-(3-chloro-2-methylphenyl)-2-(methoxymethyl)-6-({[2-(trifluoromethyl)phenyl]carbonyl}amino)-1H-benzimidazole-4-carboxamide 4-methylbenzenesulfonate]
- change in crystal form [2]: no change in crystal form was observed under any of the conditions
- relative stability of crystal forms ([3]; Form-VI crystal heated at 190°C for 10 minutes gave Form-III crystal): higher stability than the Form-VI crystal
- thermal stability in DTA/TGA [4]: stable without any weight change or endothermic or exothermic heat until decomposition at 200 °C or higher
- change in the color of the crystal ([1]; after exposure to heating, light or humidifying stimulus): no change in the color of the crystal was observed
- change in crystal form [7]: no change in crystal form was observed under any of the conditions
- relative stability of crystal forms [11]: higher stability than the 1/2 acetonitrile solvate crystal of the p-TsOH salt of the compound A obtained in Example 3
